Counter-ions that a name gives are not always drawn.
Experiments:
MEIS1 mRNA = MEIS1 mRNA expression assay (Quantigene Singleplex) in MOLM14 cells; assay type: cell-based, human; conditions: Homo sapiens, MOLM-14, 48 h, 48 hours incubation;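 also: MEIS1 transcript levels read by probe hybridization and normalized to RPL28 mRNA, with IC50 fitted to fold changes across a rising compound concentration series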
[1] = Metabolic stability in mouse liver microsomes; assay type: in vitro ADME; conditions: mouse liver microsomes 0.5 mg/mL, 1 μM test compound, pH 7.4; read-out: Mouse LM Clint
Method: (§1) 4) Metabolic Stability in Human/Mouse Liver Microsomes
(§2) The objective of this study is to measure in vitro metabolic stability of test compound(s) in human and mouse liver microsomes and provide quantitative information on the rate of metabolic turnover (i.e. determination of the apparent intrinsic clearance of test).
(§3) Test items were prepared at a stock concentration of 10 mM in DMSO. For determination of metabolic turnover, a final working solution was prepared by adding 2 μL of 10 mM DMSO stock solution for test compound or positive control compounds to 198 μL of acetonitrile (100 μM final concentration).
(§4) Incubations were performed as follows: First, liver microsomes were thawed on ice and a master solution containing liver microsomes in 100 mM PBS (phosphate-buffered saline) at pH 7.4 is prepared. Next, the liver microsomes solution was added to the incubation plates and 10 mM NADPH (Nicotinamide-adenine dinucleotide phosphate) was added (MW: 833.4 g/mol; Roche Diagnostics GmbH, Germany. Dissolved in phosphate buffer (100 mmol/L, pH 7.4)). The mixture was mixed for 10 seconds and pre-warmed in the incubation plate at 37° C. for 10 minutes. The metabolic reaction was initiated with the addition of 5 μL of the 100 μM working solution for test compound or positive control compounds to incubation plate (final test item concentration=1 μM). The reaction final mixture should contain 1 mM NADPH, 0.5 mg/mL microsomes protein and 1 μM test compound or positive control compound in 100 mM PBS at pH 7.4. The percentage of organic solvent in incubation mixture is 1% with DMSO ≤0.02%.
(§5) The reaction was quenched by transferring 50 μL of the incubated mixture at selected time points into the quenching plate containing 200 μL of cold methanol. After sampling of all the timepoints the quenching plate was centrifuged at 4000 rpm for 40 minutes to precipitate protein. A total of 90 μL of the supernatant was transferred to an analysis plate and ultra-pure H2O water is added into each well for LC/MS/MS analysis. All incubations and analysis were performed in duplicate.
(§6) All calculations were carried out using Microsoft Excel. The slope value, k, was determined by linear regression of the natural logarithm of the remaining percentage of the parent drug vs. incubation time curve.
(§7) The in vitro half-life (in vitro tin) was determined from the slope value: in vitro t1/2=−(0.693/k)
(§8) Conversion of the in vitro tin (in min) into the in vitro intrinsic clearance (in vitro CLint, in μL/min/mg proteins) was done using the following equation: […]

KO-52 cells = assay: Proliferation assay (spheroid growth, 8 days), KO-52 control cell line; assay type: cell-based, human; conditions: Homo sapiens, […], read-out: spheroid assay_OneTime KO-52 IC50
Method in brief: (§9)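 8-day spheroid growth in ultra-low attachment plates; seeding 200 cells (MOLM14, OCI-AML3) or 300 (KO-52); DMSO 0.3%. Day-8 imaging, confluence vs DMSO (0%) and top reference dose (baseline); IC50 by variable-slope fit.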

[2] = molecular target: menin/MLL (terbium chelate-labeled menin, FITC-MBM1 peptide) (Homo sapiens (Human), UniProt O00255); assay: Menin/MLL homogenous time-resolved fluorescence (HTRF) assay; assay type: binding; conditions: HTRF-30 min incubation IC50, 30 min incubation;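 also: IC50 from percent inhibition of HTRF signal, normalized between wells without competitor and wells with a saturating competitor that displaces FITC-MBM1 from His-tagged menin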
[3] = Metabolic stability in human liver microsomes; assay type: in vitro ADME; conditions: human liver microsomes 0.5 mg/mL, 1 μM test compound, pH 7.4; read-out: Human LM Clint
Method: as §1, §2, §3, §4, §5, §6, §7, §8

OCI-AML3 cells = assay: Proliferation assay (spheroid growth, 8 days), OCI-AML3; assay type: cell-based, human; conditions: Homo sapiens, OCI-AML-3, […], OCI-AML3, 8 days
Method in brief: as §9

MOLM14 cells = assay: Proliferation assay (spheroid growth, 8 days), MOLM14; assay type: cell-based, human; conditions: Homo sapiens, MOLM-14, […], MOLM14, 8 days; read-out: spheroid assay_OneTime MOLM14 IC50;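 also: spheroid size read as confluence by live-cell imaging, compounds added at a range of concentrations with 0.3% DMSO, DMSO-treated wells = 0%, highest reference dose = low control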

menin/MLL (terbium chelate-labeled menin, FITC-MBM1 peptide), sequence (O00255 other isoform, or with tags, fused parts or gaps): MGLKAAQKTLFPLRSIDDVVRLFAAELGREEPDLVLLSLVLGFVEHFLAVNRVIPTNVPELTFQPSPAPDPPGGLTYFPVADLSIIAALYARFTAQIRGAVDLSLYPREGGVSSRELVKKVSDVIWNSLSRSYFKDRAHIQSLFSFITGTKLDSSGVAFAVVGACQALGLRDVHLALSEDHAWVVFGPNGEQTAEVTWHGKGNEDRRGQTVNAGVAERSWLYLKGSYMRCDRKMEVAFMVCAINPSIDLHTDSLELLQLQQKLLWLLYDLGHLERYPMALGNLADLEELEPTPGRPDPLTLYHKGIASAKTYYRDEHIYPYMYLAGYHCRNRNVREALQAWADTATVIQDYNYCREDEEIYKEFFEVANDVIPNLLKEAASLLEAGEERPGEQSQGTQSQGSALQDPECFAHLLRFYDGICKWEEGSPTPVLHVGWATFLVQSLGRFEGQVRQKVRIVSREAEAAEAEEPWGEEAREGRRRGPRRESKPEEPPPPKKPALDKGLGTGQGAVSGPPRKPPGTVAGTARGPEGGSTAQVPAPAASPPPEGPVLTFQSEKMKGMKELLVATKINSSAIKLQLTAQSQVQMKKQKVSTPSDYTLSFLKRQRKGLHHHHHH

Row | Compound | IC50 (MEIS1 mRNA) [nM] | microsomal CLint at 1 μM [1] [µL/min/mg] | IC50 [2] [nM] | microsomal CLint at 1 μM [3] [µL/min/mg] | IC50 (OCI-AML3 cells) [nM] | IC50 (MOLM14 cells) [nM] | IC50 (KO-52 cells) [nM]
1 | CCN(C(=O)c1cc(F)ccc1Oc1nncnc1N1CCC2(C1)CN([C@H](CCCN)C(C)C)C2)C(C)C [Compound 1, (R)-2-((5-(2-(6-amino-2-methylhexan-3-yl)-2,6-diazaspiro[3.4]octan-6-yl)-1,2,4-triazin-6-yl)oxy)-N-ethyl-5-fluoro-N-isopropylbenzamide formate] | 75 | 21 | 0.13 | < 7.5 | 170 | 230 | > 15000
2 | CCN(C(=O)c1cc(F)ccc1Oc1nncnc1N1CCC2(C1)CN([C@H](CCCN(C)CCC(=O)N(C)C)C(C)C)C2)C(C)C [Compound 246, (R)-2-((5-(2-(6-((3-(dimethylamino)-3-oxopropyl)(methyl)amino)-2-methylhexan-3-yl)-2,6-diazaspiro[3.4]octan-6-yl)-1,2,4-triazin-6-yl)oxy)-N-ethyl-5-fluoro-N-isopropylbenzamide formate] | 180 |  | 0.063 |  | 380 | 60 | > 15000
3 | CC(C)[C@@H](CCC(C)(C)N)N1CC2(CCN(c3ncnnc3Oc3ccc(F)cc3-c3cncnc3C3CC3)C2)C1 (single isomer, unassigned) [Compound 37, (*R)-5-(6-(6-(2-(4-cyclopropylpyrimidin-5-yl)-4-fluorophenoxy)-1,2,4-triazin-5-yl)-2,6-diazaspiro[3.4]octan-2-yl)-2,6-dimethylheptan-2-amine] | 39 | < 7.5 | 0.12 | < 7.5 | 430 | 40 | > 15000
4 | COCCNCCC[C@H](C(C)C)N1CC2(CCN(c3ncnnc3Oc3ccc(F)cc3C(=O)N(C(C)C)C(C)C)C2)C1 (single isomer, unassigned) [Compound 99, (*R)-5-fluoro-N,N-isopropyl-2-((5-(2-(6-((2-methoxyethyl)amino)-2-methylhexan-3-yl)-2,6-diazaspiro[3.4]octan-6-yl)-1,2,4-triazin-6-yl)oxy)benzamide oxalate] | 26 | 13 | 0.2 | 27 | 82 | 8.5 | 11500
5 | CCN(C(=O)c1cc(F)ccc1Oc1nncnc1N1CCC2(C1)CN([C@H](CCCN(C)CCNC(C)=O)C(C)C)C2)C(C)C.O=C(O)/C=C/C(=O)O [Compound 245, (R)-2-((5-(2-(6-((2-acetamidoethyl)(methyl)amino)-2-methylhexan-3-yl)-2,6-diazaspiro[3.4]octan-6-yl)-1,2,4-triazin-6-yl)oxy)-N-ethyl-5-fluoro-N-isopropylbenzamide fumarate] | 140 | < 7.5 | 0.26 | 18 | 430 | 73 | > 15000

These reach a lower IC50 (MEIS1 mRNA). Values come first.

Row | IC50 (MEIS1 mRNA) [nM] | microsomal CLint at 1 μM [1] [µL/min/mg] | IC50 [2] [nM] | microsomal CLint at 1 μM [3] [µL/min/mg] | IC50 (OCI-AML3 cells) [nM] | IC50 (MOLM14 cells) [nM] | Compound | IC50 (KO-52 cells) [nM]
6 | 22 | 15 | 0.05 | 26 | 42 | 14 | CCN(C(=O)c1cc(F)ccc1Oc1nncnc1N1CCC2(C1)CN([C@H](CCCNCCC(F)F)C(C)C)C2)C(C)C.O=C(O)/C=C/C(=O)O [Compound 114, (R)-2-(5-(2-(6-((3,3-difluoropropyl)amino)-2-methylhexan-3-yl)-2,6-diazaspiro[3.4]octan-6-yl)-1,2,4-triazin-6-yl)oxy)-N-ethyl-5-fluoro-N-isopropylbenzamide fumarate] | 1690
7 | 15 | < 7.5 | 0.074 | 19 | 150 | 6.7 | CCN(C(=O)c1cc(F)ccc1Oc1nncnc1N1CCC2(C1)CN([C@H](CCCNCC(OC)OC)C(C)C)C2)C(C)C.O=C(O)/C=C/C(=O)O [Compound 104, (R)-2-((5-(2-(6-((2,2-dimethoxyethyl)amino)-2-methylhexan-3-yl)-2,6-diazaspiro[3.4]octan-6-yl)-1,2,4-triazin-6-yl)oxy)-N-ethyl-5-fluoro-N-isopropylbenzamide fumarate] | 10700
8 | 9 | < 7.5 | 0.049 | 17 | 81 | 9.8 | CCN(C(=O)c1cc(F)ccc1Oc1nncnc1N1CCC2(C1)CN([C@H](CCCN[C@H](C)COC)C(C)C)C2)C(C)C.O=C(O)/C=C/C(=O)O [Compound 112, N-ethyl-5-fluoro-N-isopropyl-2-(5(2-((R)-6-(((R)-1-methoxypropan-2-yl)amino)-2-methylhexan-3-yl)-2,6-diazaspiro[3.4]octan-6-yl)-1,2,4-triazin-6-yl)oxy)benzamide fumarate] | > 15000

— patent US12473295B2, “Substituted straight chain spiro derivatives” (Janssen Pharmaceutica NV, priority 2019, dated 2025)
